# Assay results as given in US10662146B2, “Prodrugs of fencamfamine” (Praxis Bioresearch, LLC, priority 2015, dated 2020).
# “And” between values parts separate entries of the source, which are not always exact repeats. Equal values may be shown once. Read-outs that look alike come from different tables or passages of the source.
# Assay: Single dose intravenous PK study in male Sprague Dawley rats (plasma by LC-MS/MS)
# Type: in vivo
# Details: for Plasma concentration of PRX-002 (−) Isomer: PRX-002 (−) Isomer IV 2 mg/kg b.w.
# Procedure: We describe here PK results of prodrugs of PRX-002 (−) or (+) isomers. All doses of prodrugs were administered such that they were equivalent to 5 mg/kg of PRX-002 (−) or (+) for oral studies and 2 mg/kg PRX-002 (−) or (+) for intravenous studies in male Sprague-Dawley (MSD) rats. Higher doses of up to 10 or 15 mg/kg [again equivalent to PRX-002 (−)] were used in some studies (as specified)]. Formulation preparation, dose administration and time of sample collection was as follows.
# (§1) Adult male Sprague Dawley Rats aged 8-10 weeks were used for the study. Animals were administered the test item by Intravenous bolus route with a dose of 2 mg/kg body weight at dose volume of 5.0 mL/kg body weight. Under mild isoflurane anesthesia, blood specimens were collected by retro-orbital puncture method using capillary tubes into pre-labeled tubes containing anticoagulant (K2EDTA-2 mg/mL blood) during the next 24 hours of post dose as mentioned in below table. For blood sampling at multiple time points, right and left eyes were used alternatively for blood collection. Collected blood specimens were centrifuged at 4000 rpm, 4° C. for 10 minutes and plasma were separated and stored at −80° C. until analysis.
# Blood was collected as outlined in Table 39.2 (IV).
# Test item PRX-P4-003 was weighed and transferred to a graduated tube. Then 600 μL of PEG 400 (v/v) was added and vortex mixed thoroughly until the test item was completely dissolved. Then 1.800 mL of Hydroxypropyl-β-cyclodextrin (HPβCD, 50% w/v) was added and vortex mixed thoroughly. The final volume was then made up to 3.600 mL with sterile water for injection (SWFI, v/v) with final formulation strength of 5.16 mgA/mL. […] This formulation was freshly prepared before the administration to animals.
# as §1, with “administered with a PRX-P4-003” for “administered the test item”, “of 10” for “of 2”, “of 5” for “of 5.0”
# Test item PRX-P5-006 was weighed and transferred to a graduated tube. Then 500 μL of DMSO (v/v) was added vortex mixed thoroughly until the test item was completely dissolved. Then 4000 μL of Hydroxypropyl-β-cyclodextrin (HPβCD, 50% w/v) was added and vortex mixed thoroughly. Then 2500 μL of PEG 400 (v/v) was added and vortex mixed thoroughly. The final volume was then made up to 10000 μL with sterile water for injection (SWFI, v/v) with final formulation strength of 3.97 mg/mL. […] This formulation was freshly prepared before the administration to animals.
# as §1, with “administered with a PRX-P5-006” for “administered the test item”, “of 15” for “of 2”, “of 10” for “of 5.0”
# The plasma concentrations of fencamfamine were measured by LC-MS/MS over time. […] The release of fencamfamine from the prodrugs varied depending on the chain length of the fatty acid linkers attached to fencamfamine. […]
structure (smiles),measurement,setting,value
"CCCCCCCCCCCCCCCCCC(=O)OC(C)OC(=O)N(CC)C1C2CCC(C2)C1c1ccccc1 (single isomer, unassigned) [PRX-P5-011, N-(1-Octadecanoyloxyethoxycarbonyl)-(+)-N-ethyl-3-phenylbicyclo[2.2.1]heptan-2-amine]",Plasma concentration of PRX-P5-011,"PRX-P5-011 IV 2 mg/kg b.w., 0.08 h, individual animals, 2 mg/kg",114.77 ng/mL and 37.09 ng/mL and 179.14 ng/mL
same,Plasma concentration of PRX-P5-011,"PRX-P5-011 IV 2 mg/kg b.w., 0.25 h, individual animals, 2 mg/kg",56.47 ng/mL and 17.98 ng/mL and 101.04 ng/mL
same,Plasma concentration of PRX-P5-011,"PRX-P5-011 IV 2 mg/kg b.w., 0.50 h, individual animals",0.00 ng/mL
same,Plasma concentration of PRX-P5-011,"PRX-P5-011 IV 2 mg/kg b.w., 1.00 h, individual animals",0.00 ng/mL
same,Plasma concentration of PRX-P5-011,"PRX-P5-011 IV 2 mg/kg b.w., 2.00 h, individual animals",0.00 ng/mL
same,Plasma concentration of PRX-P5-011,"PRX-P5-011 IV 2 mg/kg b.w., 4.00 h, individual animals",0.00 ng/mL
same,Plasma concentration of PRX-P5-011,"PRX-P5-011 IV 2 mg/kg b.w., 6.00 h, individual animals",0.00 ng/mL
same,Plasma concentration of PRX-P5-011,"PRX-P5-011 IV 2 mg/kg b.w., 24.00 h, individual animals",0.00 ng/mL
same,concentration at 0.08 h,"male, Sprague-Dawley, rat, plasma, iv, 2 mg/kg, PRX-P5-011 IV 2 mg/kg b.w., 0.08 h, mean",110 ng/mL
same,concentration at 0.25 h,"male, Sprague-Dawley, rat, plasma, iv, 2 mg/kg, PRX-P5-011 IV 2 mg/kg b.w., 0.25 h, mean",58.5 ng/mL
same,concentration at 0.5 h,"male, Sprague-Dawley, rat, plasma, iv, 2 mg/kg, PRX-P5-011 IV 2 mg/kg b.w., 0.50 h, individual animals",0 ng/mL
same,concentration at 0.5 h,"male, Sprague-Dawley, rat, plasma, iv, 2 mg/kg, PRX-P5-011 IV 2 mg/kg b.w., 0.50 h, mean",0 ng/mL
same,concentration at 1 h,"male, Sprague-Dawley, rat, plasma, iv, 2 mg/kg, PRX-P5-011 IV 2 mg/kg b.w., 1.00 h, individual animals",0 ng/mL
same,concentration at 1 h,"male, Sprague-Dawley, rat, plasma, iv, 2 mg/kg, PRX-P5-011 IV 2 mg/kg b.w., 1.00 h, mean",0 ng/mL
same,concentration at 2 h,"male, Sprague-Dawley, rat, plasma, iv, 2 mg/kg, PRX-P5-011 IV 2 mg/kg b.w., 2.00 h, individual animals",0 ng/mL
same,concentration at 2 h,"male, Sprague-Dawley, rat, plasma, iv, 2 mg/kg, PRX-P5-011 IV 2 mg/kg b.w., 2.00 h, mean",0 ng/mL
same,concentration at 4 h,"male, Sprague-Dawley, rat, plasma, iv, 2 mg/kg, PRX-P5-011 IV 2 mg/kg b.w., 4.00 h, individual animals",0 ng/mL
same,concentration at 4 h,"male, Sprague-Dawley, rat, plasma, iv, 2 mg/kg, PRX-P5-011 IV 2 mg/kg b.w., 4.00 h, mean",0 ng/mL
same,concentration at 6 h,"male, Sprague-Dawley, rat, plasma, iv, 2 mg/kg, PRX-P5-011 IV 2 mg/kg b.w., 6.00 h, individual animals",0 ng/mL
same,concentration at 6 h,"male, Sprague-Dawley, rat, plasma, iv, 2 mg/kg, PRX-P5-011 IV 2 mg/kg b.w., 6.00 h, mean",0 ng/mL
same,concentration at 24 h,"male, Sprague-Dawley, rat, plasma, iv, 2 mg/kg, PRX-P5-011 IV 2 mg/kg b.w., 24.00 h, individual animals",0 ng/mL
same,concentration at 24 h,"male, Sprague-Dawley, rat, plasma, iv, 2 mg/kg, PRX-P5-011 IV 2 mg/kg b.w., 24.00 h, mean",0 ng/mL
"CCN[C@H]1[C@H]2CC[C@H](C2)[C@@H]1c1ccccc1 [PRX-002 (+) Isomer, (1S,2S,3R,4R)—N-Ethyl-3-phenylbicyclo[2.2.1]heptan-2-amine, reference compound]",AUC(0-inf),"male, Sprague Dawley, rat, plasma, iv, 2 mg/kg, single IV dose 2 mg/kg b.w., mean plasma PK parameters (Table 39.27), read-out: AUCinf",268 ± 23.5 ng·h/mL
same,AUC(0-t),"male, Sprague Dawley, rat, plasma, iv, 2 mg/kg, single IV dose 2 mg/kg b.w., mean plasma PK parameters (Table 39.27), read-out: AUClast",250 ± 15.2 ng·h/mL
same,C0,"male, Sprague Dawley, rat, plasma, iv, 2 mg/kg, single IV dose 2 mg/kg b.w., mean plasma PK parameters (Table 39.27), read-out: C0",291 ± 61.8 ng/mL
same,clearance,"male, Sprague Dawley, rat, plasma, iv, 2 mg/kg, single IV dose 2 mg/kg b.w., mean plasma PK parameters (Table 39.27), read-out: CL",125 ± 10.6 mL/min/kg
same,Cmax,"male, Sprague Dawley, rat, plasma, iv, 2 mg/kg, single IV dose 2 mg/kg b.w., mean plasma PK parameters (Table 39.27), read-out: Cmax",234 ± 37.9 ng/mL
same,MRT last,"male, Sprague Dawley, rat, plasma, iv, 2 mg/kg, single IV dose 2 mg/kg b.w., mean plasma PK parameters (Table 39.27), read-out: MRTlast",1.05 ± 0.071 h
same,half-life,"male, Sprague Dawley, rat, plasma, iv, 2 mg/kg, single IV dose 2 mg/kg b.w., mean plasma PK parameters (Table 39.27), read-out: T1/2 (converted)",1.08 ± 0.152 h
same,Vd,"male, Sprague Dawley, rat, plasma, iv, 2 mg/kg, single IV dose 2 mg/kg b.w., mean plasma PK parameters (Table 39.27), read-out: Vss",10.1 ± 0.51 L/kg
same,Tmax,"male, Sprague Dawley, rat, single IV dose 2 mg/kg b.w., mean plasma PK parameters (Table 39.27), read-out: Tmax",4.8 min
same,AUCextrap,"single IV dose 2 mg/kg b.w., mean plasma PK parameters (Table 39.27)",6.639 ± 2.427%
"CCN[C@@H]1[C@@H]2CC[C@@H](C2)[C@H]1c1ccccc1 [PRX-002 (−) Isomer, (1R,2R,3S,4S)—N-Ethyl-3-phenylbicyclo[2.2.1]heptan-2-amine, reference compound]",Plasma concentration of PRX-002 (−) Isomer,"0.08 h, mean",142.01
same,Plasma concentration of PRX-002 (−) Isomer,"0.25 h, mean",112.59
same,Plasma concentration of PRX-002 (−) Isomer,"0.50 h, mean",81.21
same,Plasma concentration of PRX-002 (−) Isomer,"1.00 h, mean",58.82
same,Plasma concentration of PRX-002 (−) Isomer,"2.00 h, mean",53.05
same,Plasma concentration of PRX-002 (−) Isomer,"4.00 h, mean",16.55
same,Plasma concentration of PRX-002 (−) Isomer,"6.00 h, mean",0.00
same,Plasma concentration of PRX-002 (−) Isomer,"24.00 h, mean",0.00
same,AUC% extrap of PRX-002 (−) Isomer,"PRX-002 (−) Isomer IV 2 mg/kg, mean",14.056 ± 5.0710%
same,AUC(0-inf),"male, Sprague Dawley, rat, plasma, iv, 2 mg/kg, PRX-002 (−) Isomer IV 2 mg/kg, mean, read-out: AUCinf of PRX-002 (−) Isomer",256 ± 44.3 ng·h/mL
same,AUC(0-t),"male, Sprague Dawley, rat, plasma, iv, 2 mg/kg, PRX-002 (−) Isomer IV 2 mg/kg, mean, read-out: AUClast of PRX-002 (−) Isomer",219 ± 23.9 ng·h/mL
same,clearance,"male, Sprague Dawley, rat, plasma, iv, 2 mg/kg, PRX-002 (−) Isomer IV 2 mg/kg, mean, read-out: CL of PRX-002 (−) Isomer",133 ± 21 mL/min/kg
same,Cmax,"male, Sprague Dawley, rat, plasma, iv, 2 mg/kg, PRX-002 (−) Isomer IV 2 mg/kg, mean, read-out: Cmax of PRX-002 (−) Isomer",143 ± 1.75 ng/mL
same,MRT last,"male, Sprague Dawley, rat, plasma, iv, 2 mg/kg, PRX-002 (−) Isomer IV 2 mg/kg, mean, read-out: MRTlast of PRX-002 (−) Isomer",1.33 ± 0.118 h
same,half-life,"male, Sprague Dawley, rat, plasma, iv, 2 mg/kg, PRX-002 (−) Isomer IV 2 mg/kg, mean, read-out: T1/2 of PRX-002 (−) Isomer (converted)",1.51 ± 0.223 h
same,Vd,"male, Sprague Dawley, rat, plasma, iv, 2 mg/kg, PRX-002 (−) Isomer IV 2 mg/kg, mean, read-out: Vss of PRX-002 (−) Isomer",15.7 ± 0.339 L/kg
same,Tmax,"male, Sprague Dawley, rat, plasma, PRX-002 (−) Isomer IV 2 mg/kg, mean, read-out: Tmax of PRX-002 (−) Isomer",8.22 ± 5.88 min
